Legend:
[1] = tested on: α-SMA positive-CAFs in the FaDu subcutaneous model; experiment: Effect on α-SMA positive-CAFs in the FaDu subcutaneous model (Test Example 10); format: in vivo, mice; conditions: two days after administration
Experimental: A human squamous cell carcinoma of the head and neck (SCCHN) cell line FaDu, which had been cultured in an RPMI-1640 medium containing 10% FBS, and penicillin and streptomycin, was adjusted to a concentration of 5×10^7 cells/mL with PBS to prepare a cell suspension. The cell suspension was inoculated in a volume of 100 μL into a subcutaneous part of a right flank of nude mice, 5 to 6 weeks of ages (CAnN.Cg-Foxnlnu/CrlCrlj, female, Charles River Laboratories Japan, Inc.). Ten days after cell inoculation, a test compound in saline with 100 μM of hydroxypropyl-β-cyclodextrin was intravenously administered at ½ MTD and MTD. The experiment was conducted on groups each consisting of 3 mice. Two days after administration, tumor samples were collected and fixed with IHC Zinc Fixative (BD Pharmingen) at 4° C. for 24 hr. Paraffin-embedded tissues were sectioned (3 μm), mounted on positively charged slides, and air-dried for 6 hr. Immunohistochemical staining of α-SMA was conducted using Ventana autostainer model Discover XT (Roche Diagnostics). Sections were deparaffinized, conditioned and the antigens were retrieved with proprietary buffers, EZPrep and CC1 (Ventana Medical Systems). Mouse anti-α-SMA monoclonal antibody conjugated with alkaline phosphatase (clone 1A4, Sigma) was applied at 5 μg/mL. Sections were incubated with the antibody for 6 hr. The detection was performed with RedMap kit (Ventana Medical Systems, Inc). Sections were dehydrated in graded ethanols, defatted in xylene replacement and covered with DPX (Merck KGaA). The serial tumor slices were deparaffinized and stained with Mayer's hematoxylin (Muto Pure Chemicals) for 1 min. Sections were dehydrated in graded ethanols, defatted in xylene replacement and covered with DPX (Merck KGaA).
Immunostained slides were scanned using Vectra 2 Automated Slide Imaging System (Perkin Elmer Inc.). The area of the α-SMA-positive region in the whole tumor was quantified by counting the α-SMA-positive objects using inForm 2 software (PerkinElmer Inc.). Area of the tumor region was measured by assessing the hematoxylin-staining area using in Form 2 software (PerkinElmer Inc.). The area of the α-SMA positive region was normalized by the area of the tumor region. A suppression rate of the α-SMA positive area of the test compound-dosing group was calculated with the below formula, and shown in Table 10.

[2] = tested on: CD31-positive vessel in the FaDu subcutaneous model; experiment: Effect on CD31-positive vessel in the FaDu subcutaneous model in mice (Test Example 9); format: in vivo; conditions: five days after administration
Experimental: A human squamous cell carcinoma of the head and neck (SCCHN) cell line FaDu, which had been cultured in an RPMI-1640 medium containing 10% FBS, and penicillin and streptomycin, was adjusted to a concentration of 5×10^7 cells/mL with PBS to prepare a cell suspension. The cell suspension was inoculated in a volume of 100 μL into a subcutaneous part of a right flank of nude mice, 7 weeks of ages (CAnN.Cg-Foxnlnu/CrlCrlj, female, Charles River Laboratories Japan, Inc.). Ten days after cell inoculation, a test compound in saline with 100 μM of hydroxypropyl-β-cyclodextrin was intravenously administered at doses from ½ MTD to MTD. The experiment was conducted on groups each consisting of 3 mice. Five days after administration, tumor samples were collected and fixed with IHC Zinc Fixative (BD Pharmingen) at 4° C. for 24 hr. Paraffin-embedded tissues were sectioned (3 μm), mounted on positively charged slides, and air-dried. Immunohistochemical staining of CD31 was conducted using Ventana autostainer model Discover XT (Roche Diagnostics) according to the manufacture's protocol. Sections were deparaffinized, conditioned and the antigens were retrieved with CC1 (Ventana Medical Systems). Slides were blocked with Blocker A and Blocker B (Endogenous biotin blocking kit, Roche Diagnostics). Rat anti-mouse IgG CD31 antibody (Dianova GmbH) was applied at 2 μg/mL. […]
Immunostained slides were scanned using Vectra 2 Automated Slide Imaging System (Perkin Elmer Inc.). The number of blood vessels in the whole tumor was quantified by counting the CD31-positive objects using inForm 2 software (PerkinElmer Inc.) Area of the tumor region was measured by assessing the hematoxylin-staining area using inform 2 software (PerkinElmer Inc.) The number of blood vessels was normalized by the area of the tumor region. An increase rate of the blood vessel number of the test compound-dosing group was calculated with the below formula, and shown in Table 9. […]

[3] = tested on: human small bowel cancer cell line HuTu 80; experiment: HuTu 80 growth inhibition assay; format: cell-based; conditions: 3 days incubation, CellTiter-Glo
Experimental: In this assay, the growth inhibitory activities of test compounds in the human small bowel cancer cell line HuTu 80, which was isolated from duodenal tissue were measured. HuTu 80 cells were maintained in EMEM medium containing 10% FBS, penicillin and streptomycin in a 5% CO2 incubator (37° C.). To each well of a 96-well plate (Becton, Dickinson and Company, 353219), 100 μL of a HuTu80 cell suspension adjusted to a concentration of 3×10^4 cells/mL with the culture medium was added, and the cells were incubated overnight in a 5% CO2 incubator (37° C.). On the next day, 100 μL of Compound (1) or Halichondrin B in three-fold dilution series suspended in the culture medium was added to each well, and the resultant was incubated for 3 days in a 5% CO2 incubator (37° C.). Then, cell viability was determined by CellTiter-Glo® Luminescent Cell Viability Assay (Promega) with EnVision 2103 Multilabel Reader (Perkin-Elmer, Wellesley, Mass.). Value of the wells containing cells without adding the test compounds was defined as 100% and the value of the wells containing no cells was defined as 0%. The concentrations of the test compounds necessary for inhibiting the cell growth by 50% (i.e., an IC50 value) were calculated and are shown in Table 15.

C=C1C[C@@H]2CC[C@@]34C[C@H]5O[C@H]6[C@@H](O3)[C@H]3O[C@H](CC[C@@H]3O[C@H]6C5O4)CC(=O)O[C@@H]3[C@@H](C)[C@@H]4O[C@@H]5C[C@]6(C[C@@H]7O[C@]8(C[C@H](C)[C@@H]9O[C@H](CN)[C@H](O)C[C@@H]9O8)C[C@H](C)[C@@H]7O6)O[C@@H]5C[C@@H]4O[C@H]3C[C@H]3O[C@@H](CC[C@@H]1O2)C[C@@H](C)C3=C [Compound (1)]
Suppression rate of α-SMA positive area (%) ([1]; 0.10 mg/kg intravenously): 21%
Suppression rate of α-SMA positive area (%) ([1]; 0.20 mg/kg intravenously): 28%
Increase rate of blood vessel number (%) ([2]; 0.10 mg/kg intravenously): 69%
IC50 [3]: 0.019 nM

C=C1C[C@@H]2CC[C@@]34C[C@H]5O[C@H]6[C@@H](O3)[C@H]3O[C@H](CC[C@@H]3O[C@H]6[C@H]5O4)CC(=O)O[C@@H]3[C@@H](C)[C@@H]4O[C@@H]5C[C@]6(C[C@@H]7O[C@]8(C[C@H](C)[C@@H]9O[C@H]([C@@H](O)C[C@@H](O)CO)C[C@@H]9O8)C[C@H](C)[C@@H]7O6)O[C@@H]5C[C@@H]4O[C@H]3C[C@H]3O[C@@H](CC[C@@H]1O2)C[C@@H](C)C3=C [Halichondrin B, reference compound]
Suppression rate of α-SMA positive area (%) ([1]; 0.025 mg/kg intravenously): 7%
Suppression rate of α-SMA positive area (%) ([1]; 0.05 mg/kg intravenously): 3%
Increase rate of blood vessel number (%) ([2]; 0.025 mg/kg intravenously): 31%
Increase rate of blood vessel number (%) ([2]; 0.05 mg/kg intravenously): 39%
IC50 [3]: 0.031 nM
